According to US12435062B2, “Amide compounds and uses thereof” (HUTCHISON MEDIPHARMA LIMITED, priority 2020, dated 2025):

Legend:
[1] = molecular target: CSF1R phosphorylation in THP-1 cells (Homo sapiens (Human), UniProt P07333); experiment: Detection of CSF1R phosphorylation activity at cell level (THP-1, M-CSF stimulated, ELISA); assay type: cell-based; conditions: p-CSF1R ELISA, compound 60 min, 300 ng/mL M-CSF 1 min
Procedure: Detection of CSF1R Phosphorylation Activity at Cell Level
THP-1 (ATCC), human acute monocytic leukemia cells. The cells were cultured in an RPMI 1640 medium containing 10% FBS.
2. Reagents and instruments
• Human phosphorylation-CSF1R ELISA kit: R&D, #DYC3268-2; • RPMI 1640 culture solution: GIBCO, 910491; • Human M-CSF recombinant cytokine: R&D, 9216-MC-500; • Cell lysis buffer: Cell Signal, 99803S; • 1×PBS buffer (1 L): 8.0 g of NaCl, 0.2 g of KCl, 3.58 g of Na2HPO4-12H2O, 0.24 g of KH2PO4 were dissolved in 1 L of dd H2O, and the pH was adjusted to 7.4; • Blocking solution: PBS buffer containing 1% BSA; • PBST washing liquid: PBS buffer containing 0.05% Tween-20; • Chromogenic substrate: R&D, #DY999; • 2N H2SO4; • Microwell plate reader: Labsystems Multiskan K3: Thermo; Envision: Perkin Elmer; • ELISA plate: Corning, #9018; • Cell culture plate: Facol, #353027. 3. Treatment of cells and preparation of lysis buffer
THP-1 cells were resuspended in RPMI-1640 culture solution containing 2% FBS, and the culture was added to a 96-well plate at a density of 5×10^4/well, 50 μL/well, and cultured in a cell incubator at 5% CO2 and 37° C. overnight; The test compound was diluted with a serum-free RPMI-1640 medium to 3, 1.1, 0.37, 0.12, 0.04, 0.014, 0.005 and 0.002 μM, and the concentration of DMSO was 5%. 5 μL of the diluted compound was added to the 50 μL cell culture system, the culture was cultured in a 5% CO2, 37° C. cell incubator for 60 min, 300 ng/mL of M-CSF was added to the cells, and the mixture was stimulated in the 37° C. cell incubator for 1 min, added 50 μL of cell lysis buffer, and stored in a refrigerator at −80° C.
100 μL/well of the p-CSF1R capture antibody diluted to 0.8 μg/mL with PBS was added to the ELISA plate, and the plate was coated on a shaker at room temperature overnight. The culture was washed with PBST, and then added blocking solution and incubated at room temperature for 2 h. The culture was washed with PBST, added 90 μL of cell lysis buffer, and incubated on a shaker at 25° C. for 2 h. The plate was washed with PBST three times, added 100 μL of anti-p-tyrosine-HRP detection antibody diluted with 0.1% PBS-BSA diluent, and incubated on a shaker at 25° C. for 2 h. The plate was washed with PBST washing liquid, added 100 μL of chromogenic substrate and incubated at room temperature for 10-20 min. The reaction was stopped by adding 50 μL of 2N H2SO4. The optical density signal (450/570 nm) of each well was detected in Labsystems Multiskan K3 or Envision.
wherein • Drug-treated well read-out: indicating the optical density signal of a cell well with the test compound treatment. • Background read-out: indicating the optical density signal of a well without cells but with cell lysis buffer. • Cell well read-out: indicating the optical density signal of a cell well not treated with the compound. 6. Calculation of IC50: obtained by using XL-Fit 5.3 software. 7. Test results

Ba/F3^BCR-FMS-11 cells = experiment: Cell proliferation experiment (Ba/F3^BCR-FMS-11, cckit-8); assay type: cell-based, mouse; conditions: Mus musculus, Ba/F3^BCR-FMS-11 cell proliferation
Method in brief: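 Ba/F3 cells stably expressing BCR-FMS, CSF-1R-dependent for growth, seeded at 5000/well in RPMI 1640 with 10% FBS and exposed to 8 compound concentrations for 72 h at 37 °C.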

[2] = molecular target: Recombinant human CSF1R kinase (Homo sapiens (Human), UniProt P07333); assay type: biochemical; conditions: Z-LYTE Tyr 1 peptide substrate
Sequence of Recombinant human CSF1R kinase (P07333 20-972): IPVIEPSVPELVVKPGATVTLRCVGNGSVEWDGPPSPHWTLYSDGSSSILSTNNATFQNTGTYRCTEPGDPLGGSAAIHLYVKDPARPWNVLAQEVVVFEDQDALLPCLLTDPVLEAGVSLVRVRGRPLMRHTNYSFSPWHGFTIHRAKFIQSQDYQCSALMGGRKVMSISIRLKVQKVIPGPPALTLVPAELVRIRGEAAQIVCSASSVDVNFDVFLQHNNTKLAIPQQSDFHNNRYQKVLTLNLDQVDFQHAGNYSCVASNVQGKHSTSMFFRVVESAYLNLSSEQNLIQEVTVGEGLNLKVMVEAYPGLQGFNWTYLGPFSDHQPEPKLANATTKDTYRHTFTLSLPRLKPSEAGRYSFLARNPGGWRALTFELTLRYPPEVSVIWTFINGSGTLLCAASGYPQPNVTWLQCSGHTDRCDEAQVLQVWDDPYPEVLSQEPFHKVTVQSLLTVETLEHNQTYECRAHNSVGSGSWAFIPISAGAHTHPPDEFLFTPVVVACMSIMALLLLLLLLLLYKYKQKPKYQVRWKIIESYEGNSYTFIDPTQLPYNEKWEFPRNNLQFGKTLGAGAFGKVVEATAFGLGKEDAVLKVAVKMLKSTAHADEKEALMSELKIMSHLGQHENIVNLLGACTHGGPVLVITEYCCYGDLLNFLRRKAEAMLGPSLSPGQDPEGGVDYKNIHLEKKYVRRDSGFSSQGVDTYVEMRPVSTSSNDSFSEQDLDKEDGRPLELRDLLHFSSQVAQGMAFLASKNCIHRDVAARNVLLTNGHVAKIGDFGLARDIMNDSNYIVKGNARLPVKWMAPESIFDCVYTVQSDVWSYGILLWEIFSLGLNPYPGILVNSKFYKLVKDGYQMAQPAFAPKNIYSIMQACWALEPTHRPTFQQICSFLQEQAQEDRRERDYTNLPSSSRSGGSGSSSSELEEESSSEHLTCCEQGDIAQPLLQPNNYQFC
Procedure: Measurement of CSF1R Kinase Activity at Molecular Level
1. Reagents and materials:
• Z-LYTE™ Tyr 1 peptide substrate: Invitrogen, PV3190; • 5× kinase buffer: Invitrogen, PV3189; • 10 mM ATP: Invitrogen, PV3227; • Development reagent B: Invitrogen, PV3295; • Development buffer: Invitrogen, P3127; • Stopping solution: Invitrogen, P3094; • Recombinant human CSF1R kinase: Invitrogen, PR4598A; • 384 well plate, black: Corning, 3575; Envision: Perkin Elmer. 2. Preparation of reaction solutions
1) 1.33× kinase buffer: 5× kinase buffer was diluted to a 1.33× kinase buffer with ddH2O.
2) Dilution of a 4× test compound: The test compound was diluted in gradient to 4-fold the reaction concentration and the concentration of DMSO was kept at 8%. The final concentration of the compound in reaction was: 1, 0.33, 0.11, 0.037, 0.012, 0.004, 0.0014, 0.00046 μM, and the final concentration of DMSO was 2%.
3) A mixture of kinase/peptide substrate: In 1.33× kinase buffer, the kinase and Z-LYTE™ Tyr 1 peptide substrate were diluted to 0.12 μg/mL and 4 μM, respectively, to prepare a mixture of kinase/peptide substrate. The mixture was mixed gently with a pipette.
4) A phosphorylated peptide substrate solution (PP solution): 0.4 μL of Z-LYTE™ Tyr1 phosphorylated peptide substrate was added to 99.6 μL of 1.33× kinase buffer.
5) ATP solution: 10 mM of ATP was diluted to 760 μM with 1.33× kinase buffer to prepare ATP solution.
6) Development solution: Development reagent B was diluted with Development buffer at a ratio of 1:200.
1) Kinase reaction (10 μL system)
2.5 μL of 4× test compound was added to each reaction well of the 384 plate, and the corresponding volume of 8% DMSO was added to the control well. The plate was placed on ice. 5 μL of a mixture of kinase/peptide substrate, 2.5 μL of kinase buffer and ATP solution were successively added to each well. Three control groups were set up: Group C1 contains only kinase buffer, group C2 contains the mixture of kinase/peptide substrate, kinase buffer and ATP, and group C3 contains 5 μL of PP solution. After adding the reaction components, the 384-well plate was sealed and incubated at 25-30° C. for 1 h in dark.
5 μL of Development solution was added to each well, sealed and incubated at 25-30° C. for another 1 h in dark.
3) Reaction stopping and plate reading
5 μL of stopping solution was added to each well. The Coumarin value (excitation at 400 nm, emission at 445 nm) and Fluorescein value (excitation at 400 nm, emission at 520 nm) were measured, respectively.
ER (emission ratio): Coumarin emission read-out (445 nm)/Fluorescein emission read-out (520 nm); • C3 445 nm: 100% phosphorylated Coumarin emission read-out; • C3 520 nm: 100% phosphorylated Fluorescein emission read-out; • C1 445 nm: 0% phosphorylated Coumarin emission read-out; • C1 520 nm: 0% phosphorylated Fluorescein emission read-out. Inhibition rate % (IR)=[1−% phosphorylation ratetest sample/100% phosphorylation ratecontrol]×100%
% phosphorylation ratetest sample: phosphorylation rate of the test compound; • 100% phosphorylation ratecontrol: phosphorylation rate of C3 control group.
5. IC50 values: calculated by using software XL-Fit™ (version 5.3) supplied by ID Business Solutions (Guildford, UK), which is an additional software to Microsoft Excel.

Sequence of CSF1R phosphorylation in THP-1 cells (P07333 20-972): as above

Row | SMILES | IC50 [1] | IC50 (Ba/F3^BCR-FMS-11 cells; 72 hours) | IC50 [2] | IC50 (Ba/F3^BCR-FMS-11 cells; 72 h)
1 | CN(C)CCn1cccc(C(=O)Nc2ccc(Oc3ccnc(-c4cnn(C)c4)c3)cn2)c1=O [Compound 81, 1-(2-(dimethylamino)ethyl)-N-(5-((2-(1-methyl-1H-pyrazol-4-yl)pyridin-4-yl)oxy)pyridin-2-yl)-2-oxo-1,2-dihydropyridine-3-carboxamide] | 145 nM | 143 nM | 34 nM | 
2 | COCCn1cccc(C(=O)Nc2ccc(Oc3ccnc(-c4cnn(C)c4)c3)cn2)c1=O [Compound 82] | 11 nM |  | 6 nM | 9 nM
3 | Cn1cc(-c2cc(Oc3ccc(NC(=O)c4cccn(C5COC5)c4=O)nc3)ccn2)cn1 [Compound 83] | 13 nM |  | 9 nM | 7 nM
4 | Cn1cc(-c2cc(Oc3ccc(NC(=O)c4cccn(CCO)c4=O)nc3)ccn2)cn1 [Compound 84] | 10 nM |  | 6 nM | 8 nM
5 | Cn1cc(-c2cc(Oc3ccc(NC(=O)c4cccn(C)c4=O)nc3)ccn2)cn1 [Compound 85] | 5 nM |  | 5 nM | 7 nM
6 | CC(C)n1cccc(C(=O)Nc2ccc(Oc3ccnc(-c4cnn(C)c4)c3)cn2)c1=O [Compound 86] | 7 nM |  | 5 nM | 7 nM
7 | C=CCn1cccc(C(=O)Nc2ccc(Oc3ccnc(-c4cnn(C)c4)c3)cn2)c1=O [Compound 88] | 10 nM |  | 3 nM | 8 nM
8 | Cn1cc(-c2cc(Oc3ccc(NC(=O)c4cccn(C5CCC5)c4=O)nc3)ccn2)cn1 [Compound 89] | 16 nM |  | 8 nM | 8 nM
9 | Cn1cc(-c2cc(Oc3ccc(NC(=O)c4ccc(C(F)(F)F)n(C)c4=O)nc3)ccn2)cn1 [Compound 90] | 10 nM |  | 6 nM | 2 nM
10 | Cc1ccc(C(=O)Nc2ccc(Oc3ccnc(-c4cnn(C)c4)c3)cn2)c(=O)n1C [Compound 91] | 9 nM |  | 3 nM | 3 nM
11 | Cc1nc(NC(=O)c2cccn(C(C)C)c2=O)ccc1Oc1ccnc(-c2cnn(C)c2)c1 [Compound 93, 1-isopropyl-N-(6-methyl-5-((2-(1-methyl-1H-pyrazol-4-yl)pyridin-4-yl)oxy)pyridin-2-yl)-2-oxo-1,2-dihydropyridine-3-carboxamide] | 61 nM |  | 17 nM | 13 nM
12 | CC(C)n1cccc(C(=O)Nc2ccc(Oc3ccnc(-c4cnn(CCO)c4)c3)cn2)c1=O [Compound 95, N-(5-((2-(1-(2-hydroxyethyl)-1H-pyrazol-4-yl)pyridin-4-yl)oxy)pyridin-2-yl)-1-isopropyl-2-oxo-1,2-dihydropyridine-3-carboxamide] | 16 nM |  | 8 nM | 14 nM
13 | CC(C)n1cccc(C(=O)Nc2ccc(Oc3ccnc(Nc4cnn(C)c4)c3)cn2)c1=O [Compound 96, 1-isopropyl-N-(5-((2-((1-methyl-1H-pyrazol-4-yl)amino)pyridin-4-yl)oxy)pyridin-2-yl)-2-oxo-1,2-dihydropyridine-3-carboxamide] | 8 nM |  | 8 nM | 10 nM
14 | Cn1cc(Nc2cc(Oc3ccc(NC(=O)c4cccn(C)c4=O)nc3)ccn2)cn1 [Compound 97] | 7 nM |  | 18 nM | 15 nM
15 | Cn1ncc(-c2cc(Oc3ccc(NC(=O)c4cccn(C)c4=O)nc3)ccn2)n1 [Compound 99, 1-methyl-N-(5-((2-(2-methyl-2H-1,2,3-triazol-4-yl)pyridin-4-yl)oxy)pyridin-2-yl)-2-oxo-1,2-dihydropyridine-3-carboxamide] | 748 nM |  | 70 nM | 534 nM
16 | CC(C)n1cccc(C(=O)Nc2ccc(Oc3ccnc(-c4cn(C)cn4)c3)cn2)c1=O [Compound 100] | 15 nM |  | 8 nM | 15 nM
17 | Cc1ccc(-c2cc(Oc3ccc(NC(=O)c4cccn(C(C)C)c4=O)nc3)ccn2)cn1 [Compound 101] | 22 nM |  | 7 nM | 31 nM
18 | CC(C)n1cccc(C(=O)Nc2ccc(Oc3ccnc(-c4nccn4C)c3)cn2)c1=O [Compound 102] | 132 nM |  | 36 nM | 151 nM
19 | CC(C)n1cccc(C(=O)Nc2ccc(Oc3ccnc(-c4cn(C)nn4)c3)cn2)c1=O [Compound 103] | 7 nM |  | 6 nM | 9 nM
20 | Cn1cc(-c2cc(Oc3ccc(NC(=O)c4cccn(C5CC5)c4=O)nc3)ccn2)cn1 [Compound 104, 1-cyclopropyl-N-(5-((2-(1-methyl-1H-pyrazol-4-yl)pyridin-4-yl)oxy)pyridin-2-yl)-2-oxo-1,2-dihydropyridine-3-carboxamide] | 14 nM |  | 5 nM | 6 nM
21 | Cn1cc(-c2cc(Oc3ccc(NC(=O)c4ccc(N)n(C)c4=O)nc3)ccn2)cn1 [Compound 105, 6-amino-1-methyl-N-(5-((2-(1-methyl-1H-pyrazol-4-yl)pyridin-4-yl)oxy)pyridin-2-yl)-2-oxo-1,2-dihydropyridine-3-carboxamide] | 69 nM |  | 9 nM | 84 nM
22 | CNc1ccc(C(=O)Nc2ccc(Oc3ccnc(-c4cnn(C)c4)c3)cn2)c(=O)n1C [Compound 106, 1-methyl-N-(5-((2-(1-methyl-1H-pyrazol-4-yl)pyridin-4-yl)oxy)pyridin-2-yl)-6-(methylamino)-2-oxo-1,2-dihydropyridine-3-carboxamide] | 10 nM |  | 7 nM | 7 nM
23 | Cn1cnc(-c2cc(Oc3ccc(NC(=O)c4cccn(C)c4=O)nc3)ccn2)c1 [Compound 107, 1-methyl-N-(5-((2-(1-methyl-1H-imidazol-4-yl)pyridin-4-yl)oxy)pyridin-2-yl)-2-oxo-1,2-dihydropyridine-3-carboxamide] | 17 nM |  | 9 nM | 35 nM
24 | CC(C)n1cccc(C(=O)Nc2ncc(Oc3ccnc(-c4cnn(C)c4)c3)cc2F)c1=O [Compound 108] | 24 nM |  | 11 nM | 12 nM
25 | Cc1cc(Nc2cc(Oc3ccc(NC(=O)c4cnc(C)n(C)c4=O)nc3)ccn2)n[nH]1 [Compound 111, 1,2-dimethyl-N-(5-((2-((5-methyl-1H-pyrazol-3-yl)amino)pyridin-4-yl)oxy)pyridin-2-yl)-6-oxo-1,6-dihydropyrimidine-5-carboxamide] | 10 nM |  | 19 nM | 8 nM
26 | Cc1cc(Nc2cc(Oc3ccc(NC(=O)c4cccn(C)c4=O)nc3)ccn2)n[nH]1 [Compound 112] | 10 nM |  | 19 nM | 22 nM
27 | Cc1ncc(C(=O)Nc2ccc(Oc3ccnc(-c4cnn(CCO)c4)c3)cn2)c(=O)n1C [Compound 113, N-(5-((2-(1-(2-hydroxyethyl)-1H-pyrazol-4-yl)pyridin-4-yl)oxy)pyridin-2-yl)-1,2-dimethyl-6-oxo-1,6-dihydropyrimidine-5-carboxamide] | 17 nM |  | 34 nM | 48 nM
28 | Cc1ncc(-c2cc(Oc3ccc(NC(=O)c4cccn(C)c4=O)nc3)ccn2)s1 [Compound 114] | 35 nM |  | 42 nM | 79 nM
29 | Cc1ccc(-c2cc(Oc3ccc(NC(=O)c4cccn(C)c4=O)nc3)ccn2)cn1 [Compound 115] | 22 nM |  | 46 nM | 38 nM
30 | Cc1ncc(C(=O)Nc2ccc(Oc3ccnc(-c4cccs4)c3)cn2)c(=O)n1C [Compound 116] | 21 nM |  | 105 nM | 201 nM
